# Experimental data from ChEMBL document CHEMBL2424595, “Substituted pyrrolo[2,3-d]pyrimidines as Cryptosporidium hominis thymidylate synthase inhibitors” (Bioorg Med Chem Lett, 2013).
# Activity calls are given as the source filed them. No cut-off for these calls is given here.
# Tests used:
# [1] = biological target: Thymidylate synthase (Homo sapiens) (UniProt P04818); experiment: Inhibition of human thymidylate synthase
# [2] = system: Cryptosporidium hominis; experiment: Inhibition of Cryptosporidium hominis DHFR
# [3] = Inhibition of Cryptosporidium hominis thymidylate synthase
# Chain of Thymidylate synthase (Homo sapiens) (P04818 2-313 limits assumed): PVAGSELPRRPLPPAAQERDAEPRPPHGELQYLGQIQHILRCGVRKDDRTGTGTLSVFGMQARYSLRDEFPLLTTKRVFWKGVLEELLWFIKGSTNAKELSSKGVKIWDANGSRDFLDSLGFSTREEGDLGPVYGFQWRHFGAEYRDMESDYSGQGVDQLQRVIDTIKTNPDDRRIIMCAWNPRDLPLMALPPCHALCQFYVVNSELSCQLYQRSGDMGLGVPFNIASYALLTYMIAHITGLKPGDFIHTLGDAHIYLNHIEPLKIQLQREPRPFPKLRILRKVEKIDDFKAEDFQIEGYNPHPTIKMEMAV
IC50 [3] [nM],SMILES,inhibition [1],inhibition [2],Ki [3] [nM]
30,Nc1nc2[nH]cc(Cc3ccc(C(=O)N[C@@H](CCC(=O)O)C(=O)O)s3)c2c(=O)[nH]1,Active,Active,–
2090,Nc1nc2[nH]cc(CCc3ccc(C(=O)N[C@@H](CCC(=O)O)C(=O)O)cc3)c2c(=O)[nH]1 [PEMETREXED],–,–,–
2440,Nc1nc2[nH]cc(CCCc3ccc(C(=O)N[C@@H](CCC(=O)O)C(=O)O)cc3)c2c(=O)[nH]1,–,–,–
31100,Nc1nc2[nH]cc(CCCCCc3ccc(C(=O)N[C@@H](CCC(=O)O)C(=O)O)cc3)c2c(=O)[nH]1,–,–,–

SMILES,IC50 [3] [nM],inhibition [1],inhibition [2],Ki [3] [nM]
Nc1nc2[nH]cc(Cc3ccc(C(=O)N[C@@H](CCC(=O)O)C(=O)O)cc3)c2c(=O)[nH]1,380,–,–,–
Cc1[nH]c2nc(N)[nH]c(=O)c2c1Sc1ccc(C(=O)N[C@@H](CCC(=O)O)C(=O)O)c(Cl)c1,10,Active,Active,8.83
